“And” between values parts separate entries of the source, which are not always exact repeats. Identical values can stand only once. Inconclusive results and toxic doses are left out.
System: P388 leukemia ip, CD2F1 mice, survival T/C
Assay: NCI In Vivo Anticancer Drug Screen. Data for tumor model P388 Leukemia (intraperitoneal) in CD2F1 (CDF1) mice
Settings: endpoint: median survival time, higher = longer survival
How it was run: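 Mice carrying the transplanted tumor received test compound or vehicle. Survival was recorded in each group, and the value is the treated-group measurement divided by that of the vehicle-treated control group.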

[1] = dose: 25.0 mg/kg/injection, schedule: Q01DX005 (ip), vehicle: Klucel (hydroxypropylcellulose) (HPC)
[2] = dose: 50.0 mg/kg/injection, schedule: Q01DX005 (ip), vehicle: Klucel (hydroxypropylcellulose) (HPC)
[3] = dose: 50.0 mg/kg/injection, schedule: Q01DX005 (ip), vehicle: saline with Tween-80
[4] = dose: 100.0 mg/kg/injection, schedule: Q01DX005 (ip), vehicle: saline with Tween-80
[5] = dose: 200.0 mg/kg/injection, schedule: Q01DX005 (ip), vehicle: saline with Tween-80
[6] = dose: 50.0 mg/kg/injection, schedule: Q01DX009 (ip), vehicle: Klucel (hydroxypropylcellulose) (HPC)
[7] = dose: 200.0 mg/kg/injection, schedule: Q01DX009 (ip), vehicle: Klucel (hydroxypropylcellulose) (HPC)
[8] = dose: 6.25 mg/kg/injection, schedule: Q01DX005 (ip), vehicle: Klucel (hydroxypropylcellulose) (HPC)
[9] = dose: 12.5 mg/kg/injection, schedule: Q01DX005 (ip), vehicle: Klucel (hydroxypropylcellulose) (HPC)
[10] = dose: 50.0 mg/kg/injection, schedule: Q01DX009 (ip), vehicle: saline with Tween-80
[11] = dose: 100.0 mg/kg/injection, schedule: Q01DX009 (ip), vehicle: saline with Tween-80
[12] = dose: 60.0 mg/kg/injection, schedule: Q01DX005 (ip), vehicle: saline with Tween-80
[13] = dose: 120.0 mg/kg/injection, schedule: Q01DX005 (ip), vehicle: saline with Tween-80
[14] = dose: 240.0 mg/kg/injection, schedule: Q01DX005 (ip), vehicle: saline with Tween-80

COc1cccc2c1C(=O)c1c(O)c3c(c(O)c1C2=O)C[C@@H](C(C)=O)C[C@@H]3OC1CC(N)C(O)C(C)O1 (some centres not stated)
T/C (dose: 6.25 mg/kg/injection, schedule: Q04DX003 (ip), vehicle: water): 109 % of control
T/C (dose: 12.5 mg/kg/injection, schedule: Q04DX003 (ip), vehicle: water): 120 % of control
T/C (dose: 25.0 mg/kg/injection, schedule: Q04DX003 (ip), vehicle: water): 113 % of control
T/C (dose: 50.0 mg/kg/injection, schedule: Q04DX003 (ip), vehicle: water): 120 % of control
T/C (dose: 100.0 mg/kg/injection, schedule: Q04DX003 (ip), vehicle: water): 93 % of control

CCOC(=O)Nc1nc2ccccc2n1CN1CCOCC1
T/C [1]: 106 % of control
T/C [2]: 106 % of control
T/C (dose: 100.0 mg/kg/injection, schedule: Q01DX005 (ip), vehicle: Klucel (hydroxypropylcellulose) (HPC)): 105 % of control
T/C (dose: 200.0 mg/kg/injection, schedule: Q01DX005 (ip), vehicle: Klucel (hydroxypropylcellulose) (HPC)): 115 % of control

Cc1nc2c(sc3ccccc3n2C)c2nc3c(sc4ccccc4n3C)c(C)c12
T/C [3]: 92 % of control
T/C [4]: 90 % of control
T/C [5]: 86 % of control

COC1=C(O)C(=O)N(C)C(=O)C1
T/C (dose: 0.93 mg/kg/injection, schedule: Q01DX005 (ip), vehicle: saline): 104 % of control
T/C (dose: 1.87 mg/kg/injection, schedule: Q01DX005 (ip), vehicle: saline): 101 % of control
T/C (dose: 3.75 mg/kg/injection, schedule: Q01DX005 (ip), vehicle: Klucel (hydroxypropylcellulose) (HPC)): 110 % of control
T/C (dose: 3.75 mg/kg/injection, schedule: Q01DX005 (ip), vehicle: saline): 104 % of control

CC(=O)CC(c1ccccc1)C(Sc1ccccc1)(Sc1ccccc1)Sc1ccccc1 (configuration not stated)
T/C [6]: 101 % of control
T/C [7]: 93 % of control

CCOC(=O)C1(N=O)CCCCC1=O (configuration not stated)
T/C (dose: 100.0 mg/kg/injection, schedule: Q01DX001 (ip), vehicle: alcohol): 103 % of control
T/C (dose: 200.0 mg/kg/injection, schedule: Q01DX001 (ip), vehicle: alcohol): 97 % of control
T/C (dose: 400.0 mg/kg/injection, schedule: Q01DX001 (ip), vehicle: alcohol): 108 % of control

COC(=O)/C=C1\C=CC(=O)OC1O (configuration not stated)
T/C [8]: 102 % of control
T/C [9]: 103 % of control
T/C [1]: 113 % of control

CCCCCCCCCCCCCC[N+]1(CC)CCCCC1
T/C (dose: 0.19 mg/kg/injection, schedule: Q01DX009 (ip), vehicle: saline): 113 % of control and 115 % of control
T/C (dose: 0.39 mg/kg/injection, schedule: Q01DX009 (ip), vehicle: saline): 111 % of control and 113 % of control and 118 % of control
T/C (dose: 0.78 mg/kg/injection, schedule: Q01DX009 (ip), vehicle: saline): 120 % of control and 94 % of control
T/C (dose: 1.56 mg/kg/injection, schedule: Q01DX009 (ip), vehicle: saline): 109 % of control
T/C (dose: 1.56 mg/kg/injection, schedule: Q04DX003 (ip), vehicle: saline): 113 % of control

CCC(=O)C1(C)OC1C(C)CC(C)C1OC(=O)CC2(O)CC=C(C)C(O2)/C(C)=C/CCCC(OC2CC(OC(N)=O)C(O)C(C)O2)/C=C/C(C)C(O)C1C (configuration not stated)
T/C (dose: 6.2 mg/kg/injection, schedule: Q01DX005 (ip), vehicle: Klucel (hydroxypropylcellulose) (HPC)): 109 % of control
T/C [9]: 98 % of control
T/C [1]: 103 % of control
T/C [2]: 108 % of control

CCOC(=O)c1cccc(C(=O)OCC)c1
T/C [10]: 99 % of control
T/C [11]: 106 % of control
T/C (dose: 200.0 mg/kg/injection, schedule: Q01DX009 (ip), vehicle: saline with Tween-80): 108 % of control

N#CNC(=Nc1ccccc1)[N](C#N)[Sn]([c]1ccccc1)([c]1ccccc1)[c]1ccccc1
T/C (dose: 1.56 mg/kg/injection, schedule: Q01DX005 (ip), vehicle: Klucel (hydroxypropylcellulose) (HPC)): 100 % of control
T/C (dose: 3.12 mg/kg/injection, schedule: Q01DX005 (ip), vehicle: Klucel (hydroxypropylcellulose) (HPC)): 102 % of control
T/C [8]: 103 % of control and 97 % of control

Nc1nc(N)nc(N2CCCC2)n1
T/C (dose: 25.0 mg/kg/injection, schedule: Q01DX009 (ip), vehicle: saline with Tween-80): 101 % of control
T/C [10]: 97 % of control
T/C [11]: 92 % of control

COc1cc(C2c3cc4c(cc3[C@@H](OC3OC5CO[C@@H](C)OC5C(O)C3O)[C@H]3COC(=O)C23)OCO4)cc(OC)c1OC (some centres not stated)
T/C (dose: 16.0 mg/kg/injection, schedule: Q01DX005 (ip), vehicle: saline): 163 % of control
T/C (dose: 32.0 mg/kg/injection, schedule: Q01DX005 (ip), vehicle: saline): 166 % of control
T/C (dose: 64.0 mg/kg/injection, schedule: Q01DX005 (ip), vehicle: saline): 153 % of control

Cc1cc(C)n(P2(n3nc(C)cc3C)=NP(n3nc(C)cc3C)(n3nc(C)cc3C)=NP(n3nc(C)cc3C)(n3nc(C)cc3C)=N2)n1
T/C [3]: 98 % of control
T/C [4]: 98 % of control
T/C [5]: 99 % of control

CN(/N=C/c1ccccc1)C(N)=Nc1ccccc1
T/C [3]: 119 % of control
T/C [4]: 107 % of control
T/C [5]: 104 % of control

CC1NCCCN(CCN(C)C)CCCNC(C)c2cccc1n2 (configuration not stated)
T/C (dose: 50.0 mg/kg/injection, schedule: Q01DX001 (ip), vehicle: saline): 103 % of control and 96 % of control
T/C (dose: 100.0 mg/kg/injection, schedule: Q01DX001 (ip), vehicle: saline): 101 % of control and 114 % of control and 92 % of control
T/C (dose: 200.0 mg/kg/injection, schedule: Q01DX001 (ip), vehicle: saline): 103 % of control and 122 % of control and 97 % of control

CSc1nc(NC2OCC(OC(C)=O)C(OC(C)=O)C2OC(C)=O)c(N=CC=Nc2c(NC3OCC(OC(C)=O)C(OC(C)=O)C3OC(C)=O)nc(SC)[nH]c2=O)c(=O)[nH]1 (configuration not stated)
T/C [12]: 90 % of control
T/C [13]: 92 % of control
T/C [14]: 89 % of control

COC1C=CC(=O)C(C)(c2ccc(S(=O)(=O)c3ccccc3)cc2)O1 (configuration not stated)
T/C [12]: 104 % of control
T/C [13]: 95 % of control
T/C [14]: 106 % of control

Cc1cc(=NO)cc(C)n1O
T/C (dose: 25.0 mg/kg/injection, schedule: Q01DX005 (ip), vehicle: distilled water + alcohol): 113 % of control
T/C (dose: 50.0 mg/kg/injection, schedule: Q01DX005 (ip), vehicle: distilled water + alcohol): 113 % of control and 123 % of control
T/C (dose: 50.0 mg/kg/injection, schedule: Q01DX005 (ip), vehicle: water): 115 % of control
T/C (dose: 100.0 mg/kg/injection, schedule: Q01DX005 (ip), vehicle: distilled water + alcohol): 121 % of control
T/C (dose: 100.0 mg/kg/injection, schedule: Q01DX005 (ip), vehicle: water): 106 % of control
T/C (dose: 200.0 mg/kg/injection, schedule: Q01DX005 (ip), vehicle: water): 118 % of control

COC(=O)C1(CC(=O)c2ccc(F)cc2)NC(=S)NC(=O)C1C#N (configuration not stated)
T/C [12]: 99 % of control
T/C [13]: 98 % of control
T/C [14]: 106 % of control

Cc1ccc(N=Cc2cccs2)c(Br)c1
T/C [6]: 100 % of control
T/C (dose: 100.0 mg/kg/injection, schedule: Q01DX009 (ip), vehicle: Klucel (hydroxypropylcellulose) (HPC)): 118 % of control
T/C [7]: 100 % of control

CC1(C)N=C(N)N=C(N)N1c1ccc(CCCCc2ccc(S(=O)(=O)F)cc2)cc1
T/C (dose: 12.0 mg/kg/injection, schedule: Q01DX009 (ip), vehicle: saline sonified): 152 % of control
T/C (dose: 18.0 mg/kg/injection, schedule: Q01DX009 (ip), vehicle: saline sonified): 152 % of control
T/C [10]: 95 % of control
T/C (dose: 50.0 mg/kg/injection, schedule: Q04DX003 (ip), vehicle: saline with Tween-80): 100 % of control

CC(C)COC(CN(C)C)C(Cl)(Cl)Cl (configuration not stated)
T/C (dose: 50.0 mg/kg/injection, schedule: Q01DX009 (ip), vehicle: saline): 107 % of control
T/C (dose: 100.0 mg/kg/injection, schedule: Q01DX009 (ip), vehicle: saline): 100 % of control
T/C (dose: 200.0 mg/kg/injection, schedule: Q01DX009 (ip), vehicle: saline): 116 % of control

COc1cccc2c1c(=O)c1cc([N+](=O)[O-])ccc1n2C
T/C (dose: 100.0 mg/kg/injection, schedule: Q01DX001 (ip), vehicle: saline with Tween-80): 100 % of control
T/C (dose: 200.0 mg/kg/injection, schedule: Q01DX001 (ip), vehicle: saline with Tween-80): 97 % of control
T/C (dose: 400.0 mg/kg/injection, schedule: Q01DX001 (ip), vehicle: saline with Tween-80): 86 % of control

From PubChem BioAssay AID330 (DTP/NCI, 2004)
